Test system: U2OS cells
Test: U2OS cells plated on 2D alginate substrates: spreading, YAP localization, proliferation
Assay type: cell-based, human
Conditions: 10 μM, initial Young's modulus 1.4 kPa, RGD 1500
Protocol: Plating of cells on gels. 1 mm thick alginate hydrogels were prepared as previously described (Zhao et al. J. Appl. Phys. 107, 63509 (2010); and Huebsch et al. Nat Mater 9, 518-526 (2010)). Following gelation, 15 mm disks were punched out, and these disks were washed thoroughly 4 times over 2 days in serum free media to remove any excess calcium. […] Cells were allowed to spread for 20 hours, and then were fixed and stained for analysis. Only isolated cells, without any cell-cell contacts, were analyzed. Immunohistochemistry. For immunohistochemical staining, media was first removed from the gels. The gels were then fixed with 4% paraformaldehyde in serum free DMEM at 37° C. for 30-45 minutes. Gels were then washed 3 times in PBS containing calcium (cPBS). Gels from 3D studies were then incubated overnight in 30% sucrose in cPBS at 4° C. […] Images of all single cells were then thresholded manually based on the actin stain, and the area of the thresholded cell body was determined using a custom macro in ImageJ (NIH). […] The YAP nuclear localization ratio was then determined as the summed intensity of the YAP signal within the nucleus normalized by the nuclear area divided by the summed intensity of the YAP signal outside of the nucleus normalized by the non-nuclear cytoskeleton area.

C[C@@H](N)[C@H]1CC[C@H](C(=O)Nc2ccncc2)CC1 [Y-27632]
effect on increased cell spreading on stress relaxing substrate: abrogated the increased cell spreading

Source: US11806441B2, “Viscoelastic hydrogels with fast stress relaxation” (President and Fellows of Harvard College, priority 2014, dated 2023)
